The logP is the decadic logarithm of the partition coefficient of the neutral form, usually between octanol and water. Higher therefore signals higher lipophilicity. What is called logD is lipophilicity at a set pH, counting ionised and neutral species. A low value points to a more hydrophilic compound.

The first data set is described as follows: method code SF-AS, from DOI: 10.1002/hlca.19830660215.
Conditions: not given
Compound `COc1ccccc1C(=O)NCCN` yielded a logP of 0.

`CCN(CC)CCCNC(=O)c1ccccc1OC` displayed a lipophilicity (logP) of 1.76.

Regarding `CN(C)CCNC(=O)c1ccccc1`, the logP is 1.1.

Consider `COc1ccccc1C(=O)N1CCN(C)CC1`, for which the logP was determined as 0.29.

In turn, `COc1ccccc1C(=O)NCCCN(C)C` yielded a logP of 1.27.

As for `CCN(CC)CCNC(=O)c1ccccc1OC`, the logP turned out to be 1.98.

As to `COc1ccccc1C(=O)NCCN(C)C`, the logP turned out to be 1.14.

Staying with this data set, now noted: pH 11.0.
In the case of `COc1ccccc1C(=O)NCCCCN`, the log distribution coefficient (logD) turned out to be 0.58.

`CCN(CC)CCCNC(=O)c1ccccc1` had a pH-dependent lipophilicity (logD) of 1.56.

Regarding `CCN(CC)CCNC(=O)c1ccccc1`, the logD worked out at 1.84.

In turn, `NCCCNC(=O)c1ccccc1` gave a logD of 0.3.

As to `NCCCCNC(=O)c1ccccc1`, the logD is 0.58.

The compound `NCCNC(=O)c1ccccc1` yielded a log distribution coefficient (logD) of 0.06.

`CN(C)CCCNC(=O)c1ccccc1`: the logD was found to be 1.27.
